Values after ≈ are worked out from the molar mass of the structure shown. Read-outs that look alike come from different tables or passages of the source.
Columns and labels:
[1] = tested on: Staphylococcus aureus ATCC12600; assay: MIC assay, wild type S. aureus ATCC 12600; type: cell-based
M. tuberculosis H37Rv = assay: Antibiotic assay against Mycobacterium tuberculosis (IC90); type: cell-based; details: for MIC: read-out: IC90 (footnote a; column head MIC)
[2] = tested on: Staphylococcus aureus USA100; assay: MIC assay, S. aureus USA100
Procedure: (§1) Minimum Inhibitory Concentration (MIC) and Minimal Bactericidal Concentration (MBC) Assays. […] Specifically, overnight cultures in an appropriate broth (e.g., Luria Bertani, Mueller-Hinton II) were diluted to 5×10^5 cfu/mL and used to fill wells of a 96-well plate. […] The plates were incubated on a shaker (200 rpm) at 35-37° C. for 18-20 hours, and then the optical density was measured at 595 nm on a microplate reader.

[3] = tested on: Staphylococcus aureus USA200; assay: MIC assay, S. aureus USA200
Procedure: as §1

[4] = tested on: Staphylococcus aureus USA800; assay: MIC assay, S. aureus USA800
Procedure: as §1

[5] = tested on: Staphylococcus aureus ATCC BAA-42; assay: MIC assay, S. aureus ATCC BAA-42
Procedure: as §1

[6] = tested on: Staphylococcus aureus ATCC BAA-1721; assay: MIC assay, S. aureus ATCC BAA-1721
Procedure: as §1

[7] = tested on: Staphylococcus aureus NCTC 8325 pT181; assay: MIC assay, S. aureus NCTC 8325 pT181
Procedure: as §1

[8] = tested on: Enterococcus faecium Com15; assay: MIC assay, Enterococcus faecium Com15
Procedure: as §1

[9] = tested on: S. aureus ATCC 12600 D471Y mutant strain; assay: microbe, parasite or virus in culture; details: Staphylococcus aureus, ATCC12600
[10] = tested on: Pseudomonas aeruginosa PAO1; assay: MIC assay, Pseudomonas aeruginosa PAO1
Procedure: as §1

[11] = tested on: Listeria monocytogenes ATCC15313; assay: MIC assay, Listeria monocytogenes ATCC15313
Procedure: as §1

[12] = tested on: Staphylococcus epidermidis RP62A; assay: MIC assay, Staphylococcus epidermidis RP62A
Procedure: as §1

[13] = tested on: S. aureus ATCC 12600 D471Y mutant strain
[14] = tested on: Salmonella enterica IR715; assay: MIC assay, Salmonella enterica IR715
Procedure: (§2) Minimum Inhibitory Concentration (MIC) and Minimal Bactericidal Concentration (MBC) Assays. […] Specifically, overnight cultures in an appropriate broth (e.g., Luria Bertani, Mueller-Hinton II) were diluted to 5×10^5 cfu/mL and used to fill wells of a 96-well plate. […] The plates were incubated on a shaker (200 rpm) at 35-37° C. for 18-20 hours, and then the optical density was measured at 595 nm on a microplate reader. Samples of each well without visible growth were diluted and spread on LB agar petri dishes. The petri dishes were incubated overnight at 37° C., and the colonies were counted.

[15] = tested on: Proteus mirabilis ATCC29906; assay: MIC assay, Proteus mirabilis ATCC29906
Procedure: as §2

[16] = tested on: Acinetobacter baumannii ATCC17978; assay: MIC assay, Acinetobacter baumannii ATCC17978
Procedure: as §2

[17] = tested on: rifamycin resistant S. aureus strains carrying RNAP mutations; assay: Activity against rifamycin resistant S. aureus strains carrying RNAP mutations; details: FIG. 6D
[18] = molecular target: T1, S447L mutant DNA-dependent RNA polymerase from Mycobacterium smegmatis (Mycolicibacterium smegmatis, UniProt P60281, S447L); type: biochemical; details: S447L M. smegmatis RNAP mutant
T1 construct: made in house

[19] = Mycobacterium tuberculosis H37Rv, Table 5
[20] = Staphylococcus aureus, ATCCBAA42
[21] = Staphylococcus aureus, ATCCBAA1721
[22] = Staphylococcus aureus, NCTC8325
[23] = Mycobacterium tuberculosis, H37RV

Row | SMILES | MIC (M. tuberculosis H37Rv; [19]) [µg/mL] | MIC [2] [µg/mL] | MIC [3] [µg/mL] | MIC [4] [µg/mL] | MIC [5, 20] [µg/mL] | MIC [6, 21] [µg/mL] | MIC [7, 22] [µg/mL] | MIC ([8]; Enterococcus faecium, COM15) [µg/mL] | MIC [9] [µg/mL] | MIC [10] [µg/mL] | MIC [11] [µg/mL] | MIC [12] [µg/mL] | MIC [1] [µg/mL] | IC90 (M. tuberculosis H37Rv; [23]) [µM] | MIC [14] [µg/mL] | MIC [15] [µg/mL] | MIC [16] [µg/mL] | activity against rifamycin resistant S. aureus strains [17] | further results
1 | CO[C@H]1/C=C/O[C@@]2(C)Oc3c(C)c(O)c4c(O)c(c(/C=N/N5CCN(C)CC5)c(O)c4c3C2=O)NC(=O)/C(C)=C\C=C\[C@H](C)[C@H](O)[C@@H](C)[C@@H](O)[C@@H](C)[C@H](OC(C)=O)[C@@H]1C [Rifampicin, rifampicin, reference compound] | 0.2 (≈ 0.243 µM) | 0.0078 (≈ 0.00948 µM) | 0.0078 (≈ 0.00948 µM) | 0.016 (≈ 0.0194 µM) | 0.016 (≈ 0.0194 µM) | 0.0078 (≈ 0.00948 µM) | 0.031 (≈ 0.0377 µM) | 4 (≈ 4.86 µM) | 5.6 (≈ 6.8 µM) | 32 (≈ 38.9 µM) | 0.031 (≈ 0.0377 µM) | 0.016 (≈ 0.0194 µM) |  |  |  |  |  |  | MIC ([1]; read-out: MIC): 0.023 µg/mL (≈ 0.0279 µM)
2 | CC(=O)OC1C(C)C(OC2CC3OCOC3C(C)O2)/C=C/OC2(C)CC(O)c3c(c(C)c(O)c4c3C(=O)C=C(NC(=O)/C(C)=C\C=C\C(C(C)OC(=O)C(C)(C)CC(=O)O)C(O)C(C)C(O)C1C)C4=O)O2 (stereo not drawn) [Kang V1, kanglemycin V1] | 3.1 (≈ 3.11 µM) | 0.13 (≈ 0.13 µM) | 0.25 (≈ 0.25 µM) | 0.063 (≈ 0.0631 µM) | 0.13 (≈ 0.13 µM) | 0.063 (≈ 0.0631 µM) | 0.063 (≈ 0.0631 µM) | 32 (≈ 32.1 µM) | 0.069 (≈ 0.0691 µM) | 64 (≈ 64.1 µM) | 1 (≈ 1 µM) | 0.031 (≈ 0.0311 µM) | 0.069 (≈ 0.0691 µM) | 3.12 | > 64 | > 64 | > 64 | active | fold lower MIC than rifampicin [13]: ~80 fold
3 | CC(=O)OC1C(C)C(OC2CC3OCOC3C(C)O2)/C=C/OC2(C)OC3=C(C)C(=O)c4c(O)c(cc5c4C3=C2OCO5)NC(=O)/C(C)=C\C=C\C(C(C)OC(=O)C(C)(C)CC(=O)O)C(O)C(C)C(O)C1C (stereo not drawn) [Kang V2, kanglemycin V2] | 1.6 (≈ 1.61 µM) | 1 (≈ 1 µM) | 2 (≈ 2.01 µM) | 1 (≈ 1 µM) | 1 (≈ 1 µM) | 0.25 (≈ 0.251 µM) | 0.25 (≈ 0.251 µM) | 64 (≈ 64.3 µM) |  | 64 (≈ 64.3 µM) | 1 (≈ 1 µM) | 0.25 (≈ 0.251 µM) | 0.62 (≈ 0.622 µM) | 1.56 | > 64 | > 64 | > 64 | active | in vitro activity against RNAP (run-off transcription) [18]: highest potency
4 | CC(=O)O[C@@H]1[C@@H](C)[C@@H](O)[C@@H](C)[C@@H](O)[C@@H]([C@@H](C)OC(=O)C(C)(C)CC(=O)O)/C=C/C=C(\C)C(=O)NC2=CC(=O)c3c(c(O)c(C)c4c3C(=O)[C@](C)(O/C=C/[C@H](O[C@@H]3C[C@@H]5OCO[C@@H]5[C@H](C)O3)[C@H]1C)O4)C2=O [Kang A, kanglemycin A, reference compound] |  | 1.0 (≈ 1.02 µM) | 2.0 (≈ 2.04 µM) | 0.5 (≈ 0.509 µM) |  |  |  |  |  | 64 (≈ 65.2 µM) | 2.0 (≈ 2.04 µM) | 0.25 (≈ 0.255 µM) | 0.62 (≈ 0.631 µM) |  | >64 | >64 | >64 |  | IC90 (M. tuberculosis H37Rv; M. tuberculosis H37Rv, read-out: IC90): 12.5 µM; IC90 (footnote a; column head MIC) (M. tuberculosis H37Rv; [19]): 13 µg/mL (≈ 13.2 µM); MIC ([5]; Staphylococcus aureus ATCC BAA-42): 1.0 µg/mL (≈ 1.02 µM); MIC ([6]; Staphylococcus aureus ATCC BAA-1721): 2.0 µg/mL (≈ 2.04 µM); MIC ([7]; Staphylococcus aureus NCTC 8325 pT181): 0.25 µg/mL (≈ 0.255 µM); MIC ([8]; Enterococcus faecium Com15): 64 µg/mL (≈ 65.2 µM)
